The values below come from patent US9096591B2, “Tetracyclic compounds” (Medivation Technologies, Inc., priority 2007, dated 2015).

In experiment [1] the target is T1, human recombinant histamine H2 receptor (Homo sapiens, UniProt P25021).
T1 construct: expressed in transfected cells; host or cells: CHO-K1 cells
As to the kind of experiment: Histamine H2 radioligand binding ([125I]Aminopotentidine). The procedure, abridged:
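Test compounds were assessed for their ability to displace radioligand from the human recombinant histamine H2 receptor. Non-specific binding was determined in the presence of 3 μM Tiotidine, and results were expressed as percent inhibition of specific binding, with 1% DMSO serving as the vehicle.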

For experiment [2], the target named is T2, human recombinant adrenergic α2B receptor (Homo sapiens, UniProt P18089).
T2 construct: expressed in transfected cells; host or cells: CHO-K1 cells
T2 sequence (P18089 1-450): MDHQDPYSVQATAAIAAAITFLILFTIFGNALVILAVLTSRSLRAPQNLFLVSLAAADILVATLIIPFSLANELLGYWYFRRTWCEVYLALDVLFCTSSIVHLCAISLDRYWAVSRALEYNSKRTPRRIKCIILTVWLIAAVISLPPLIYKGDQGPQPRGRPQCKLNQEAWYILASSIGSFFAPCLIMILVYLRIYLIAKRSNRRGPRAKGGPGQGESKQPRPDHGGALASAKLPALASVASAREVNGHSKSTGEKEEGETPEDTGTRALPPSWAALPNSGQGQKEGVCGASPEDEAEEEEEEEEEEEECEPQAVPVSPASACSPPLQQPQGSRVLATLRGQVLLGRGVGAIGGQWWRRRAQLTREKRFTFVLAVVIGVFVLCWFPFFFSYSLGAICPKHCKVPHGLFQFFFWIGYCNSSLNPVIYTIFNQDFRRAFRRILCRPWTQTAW
As to the kind of experiment: Adrenergic α2B radioligand binding ([3H]Rauwolscine). Set-up: Inhibition of ligand binding, Adren. alpha2B: concentration or dose not given beside the values. The settings on record: percent inhibition of specific binding. On the procedure: To evaluate in radioligand binding assays the activity of compounds of the invention, human recombinant adrenergic α2B receptor expressed in Chinese hamster ovary (CHO-K1) cells (Uhlen S et al. Eur J. Pharmacol. 343(1):93, 1998) in a modified Tris-HCl buffer (50 mM Tris-HCl, pH 7.4, 12.5 mM MgCl2, 1 mM EDTA, 0.2% BSA) was used. Compounds of the invention were incubated with 2.5 nM [^3H]Rauwolscine for 60 minutes at 25° C. Non-specific binding was estimated in the presence of 10 μM Prozosin. Receptor proteins were filtered and washed, the filters were then counted to determine [^3H]Rauwolscine specifically bound. […] Biochemical assay results are presented as the percent inhibition of specific binding in Table 6.

In experiment [3] the target is T3, human recombinant serotonin (5-Hydroxytryptamine) 5-HT2A receptor (Homo sapiens, UniProt P28223).
T3 construct: expressed in transfected cells; host or cells: CHO-K1 cells
Kind of experiment: Serotonin 5-HT2A radioligand binding ([3H]Ketanserin). Conditions: percent inhibition of specific binding. The procedure:
Compounds of the invention were incubated with 0.5 nM [^3H]Ketanserin for 60 minutes at 25° C. Non-specific binding was estimated in the presence of 1 μM Mianserin. Receptor proteins were filtered and washed, the filters were then counted to determine [^3H]Ketanserin specifically bound. […] Biochemical assay results are presented as the percent inhibition of specific binding in Table 6.

For experiment [4], the target named is T4, human recombinant serotonin (5-Hydroxytryptamine) 5-HT2C receptor (Homo sapiens, UniProt P28335).
T4 construct: expressed in transfected cells; host or cells: CHO-K1 cells
T4 sequence (P28335 33-458): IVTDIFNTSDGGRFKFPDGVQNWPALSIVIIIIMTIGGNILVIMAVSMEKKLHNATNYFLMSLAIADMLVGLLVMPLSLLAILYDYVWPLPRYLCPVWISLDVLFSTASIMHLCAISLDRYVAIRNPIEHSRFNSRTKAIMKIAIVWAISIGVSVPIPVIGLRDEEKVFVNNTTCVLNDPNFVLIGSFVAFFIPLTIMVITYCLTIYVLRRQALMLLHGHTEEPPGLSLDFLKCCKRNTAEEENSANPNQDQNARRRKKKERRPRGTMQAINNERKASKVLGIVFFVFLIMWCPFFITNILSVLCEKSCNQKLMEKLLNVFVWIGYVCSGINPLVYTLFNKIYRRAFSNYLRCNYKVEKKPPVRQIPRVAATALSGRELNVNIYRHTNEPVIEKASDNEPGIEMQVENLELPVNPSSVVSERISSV
Kind of experiment: Serotonin 5-HT2C radioligand binding ([3H]Mesulergine). Also on record: Inhibition of ligand binding, Ser. 5-HT2C: concentration or dose not given beside the values. The settings on record: percent inhibition of specific binding. The procedure:
Compounds of the invention were incubated with 1 nM [^3H]Mesulergine for 60 minutes at 25° C. Non-specific binding was estimated in the presence of 1 μM Mianserin. Receptor proteins were filtered and washed, the filters were then counted to determine [^3H]Mesulergine specifically bound. […] Biochemical assay results are presented as the percent inhibition of specific binding in Table 6.

The target of experiment [5] is T5, human recombinant adrenergic α1D receptor (Homo sapiens, UniProt P25100).
T5 construct: expressed in transfected cells; host or cells: HEK-293 cells
T5 sequence (P25100 1-572): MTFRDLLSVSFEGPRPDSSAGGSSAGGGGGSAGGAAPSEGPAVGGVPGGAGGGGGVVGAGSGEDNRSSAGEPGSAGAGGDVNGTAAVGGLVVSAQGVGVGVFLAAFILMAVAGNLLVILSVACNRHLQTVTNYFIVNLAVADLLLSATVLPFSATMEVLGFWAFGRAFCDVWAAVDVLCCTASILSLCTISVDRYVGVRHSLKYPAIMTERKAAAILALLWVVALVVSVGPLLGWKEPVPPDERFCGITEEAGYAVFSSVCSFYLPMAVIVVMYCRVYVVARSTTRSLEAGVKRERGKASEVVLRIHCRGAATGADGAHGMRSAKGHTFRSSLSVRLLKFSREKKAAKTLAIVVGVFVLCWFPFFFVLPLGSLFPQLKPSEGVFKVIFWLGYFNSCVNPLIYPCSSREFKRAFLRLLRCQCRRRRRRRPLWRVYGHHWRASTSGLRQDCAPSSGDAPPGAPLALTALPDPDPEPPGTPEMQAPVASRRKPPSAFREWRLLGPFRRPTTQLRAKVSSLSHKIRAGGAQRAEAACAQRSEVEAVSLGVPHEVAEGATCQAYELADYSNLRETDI
Kind of experiment: Adrenergic α1D radioligand binding ([3H]Prozosin). Conditions: percent inhibition of specific binding. Also on record: Inhibition of ligand binding, Adren. alpha1D: concentration or dose not given beside the values. The procedure:
Compounds of invention were incubated with 0.6 nM [^3H]Prozosin for 60 minutes at 25° C. Non-specific binding was estimated in the presence of 10 μM phentolamine. Receptor proteins were filtered and washed, the filters were then counted to determine [^3H]Prozosin specifically bound. […] Biochemical assay results are presented as the percent inhibition of specific binding in Table 6.

The mark [6] stands for this setting: 1 μM compound, 0.1 nM [125I]Aminopotentidine, read-out: Histamine Binding H2, percent inhibition of specific binding.
The mark [7] stands for this setting: percent inhibition of specific binding, screened at 1 μM, read-out: Inhibition of ligand binding, Hist. H2.

Each structure is given as a SMILES string. Where two headings read alike, the source gives them in different places.

T1 sequence (P25021 whole entry): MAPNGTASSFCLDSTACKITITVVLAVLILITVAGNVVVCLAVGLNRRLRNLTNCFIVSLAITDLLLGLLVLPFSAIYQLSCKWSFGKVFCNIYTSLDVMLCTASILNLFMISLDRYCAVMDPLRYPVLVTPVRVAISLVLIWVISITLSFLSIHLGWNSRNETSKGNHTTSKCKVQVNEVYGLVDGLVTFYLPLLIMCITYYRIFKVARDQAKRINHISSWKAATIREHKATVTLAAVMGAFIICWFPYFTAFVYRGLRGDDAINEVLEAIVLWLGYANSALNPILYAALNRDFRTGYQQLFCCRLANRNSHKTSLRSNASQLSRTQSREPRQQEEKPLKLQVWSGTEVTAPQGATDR
T3 sequence (P28223 whole entry): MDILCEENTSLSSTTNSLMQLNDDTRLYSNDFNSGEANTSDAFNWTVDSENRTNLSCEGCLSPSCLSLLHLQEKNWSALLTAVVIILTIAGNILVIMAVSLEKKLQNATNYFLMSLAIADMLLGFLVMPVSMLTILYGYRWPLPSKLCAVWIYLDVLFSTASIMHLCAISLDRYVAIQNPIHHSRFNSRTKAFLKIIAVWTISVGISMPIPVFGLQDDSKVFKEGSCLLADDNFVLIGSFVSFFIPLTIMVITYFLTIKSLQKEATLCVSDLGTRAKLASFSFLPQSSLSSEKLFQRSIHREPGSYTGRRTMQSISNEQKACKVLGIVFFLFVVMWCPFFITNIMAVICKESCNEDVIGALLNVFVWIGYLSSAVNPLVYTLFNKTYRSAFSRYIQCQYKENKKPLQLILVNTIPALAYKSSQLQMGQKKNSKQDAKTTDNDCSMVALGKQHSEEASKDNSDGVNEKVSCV

One may read the inhibition as the relative decrease from the control value, in per cent. As for `CCN1CCc2c(c3cc(C)ccc3n2CCc2ccncc2)C1` [Compound 27, 2-ethyl-2,3,4,5-tetrahydro-8-methyl-5-(2-(pyridin-4-yl)ethyl)-1H-pyrido[4,3-b]indole], the inhibition at 1 µM in experiment [1] (setting [6]) and in experiment [1] (setting [7]) was 32% each time. Further, the “Inhibition of ligand binding, Adren. alpha2B” value (“Inhibition … Adren. alpha2B” below) in experiment [2] came to 100%. Further, in experiment [3], the “Inhibition of ligand binding, Ser. 5-HT2A” value (“Inhibition … Ser. 5-HT2A” for short) is 63%. For the same molecule, the “Inhibition of ligand binding, Ser. 5-HT2C” value (shortened to “Inhibition … Ser. 5-HT2C”) in experiment [4] was determined as 29%. The “Inhibition of ligand binding, Adren. alpha1D” value (“Inhibition … Adren. alpha1D” below) in experiment [5] is given as 63%.

Take `CN1CCc2c(c3ccccc3n2CCc2ccccn2)C1` [Compound 329, 2,3,4,5-tetrahydro-2-methyl-5-(2-(pyridin-2-yl)ethyl)-1H-pyrido[4,3-b]indole]: the inhibition at 1 µM in experiment [1] (setting [7]) was 16%. For the same molecule, in experiment [2], the “Inhibition … Adren. alpha2B” value turned out to be 68%. Besides, the “Inhibition … Ser. 5-HT2A” value in experiment [3] is recorded as 70%. For the same molecule, the “Inhibition … Ser. 5-HT2C” value in experiment [4] turned out to be 54%. The “Inhibition … Adren. alpha1D” value in experiment [5] turned out to be 4%.

Turning to `Cc1ccc2c(c1)c1c(n2CCC(=O)N2CCC(N)CC2)CCN(C)C1` [Compound 231, 1-(4-aminopiperidin-1-yl)-3-(1,2,3,4-tetrahydro-2,8-dimethylpyrido[4,3-b]indol-5-yl)propan-1-one], the inhibition at 1 µM in experiment [1] (setting [6]) and in experiment [1] (setting [7]) was 4% in each case. Besides, the “Inhibition … Adren. alpha2B” value in experiment [2] turned out to be 11%. Moreover, the “Inhibition … Ser. 5-HT2A” value in experiment [3] turned out to be 5%. Further, in experiment [4], the “Inhibition … Ser. 5-HT2C” value came to 49%. Moreover, in experiment [5], the “Inhibition … Adren. alpha1D” value is listed as 21%.

In the case of `Cc1ccc2c(c1)c1c(n2CCN2CCCC2)CCN(C)C1` [Compound 221, 2,3,4,5-tetrahydro-2,8-dimethyl-5-(2-(pyrrolidin-1-yl)ethyl)-1H-pyrido[4,3-b]indole], the inhibition at 1 µM in experiment [1] (setting [6]) and in experiment [1] (setting [7]) was 52% in each case. In addition, the “Inhibition … Adren. alpha2B” value in experiment [2] is on record as 26%. In experiment [3], the “Inhibition … Ser. 5-HT2A” value came to 46%. Besides, in experiment [4], the “Inhibition … Ser. 5-HT2C” value came to 69%. Also, the “Inhibition … Adren. alpha1D” value in experiment [5] was determined as 30%.

For the molecule `CCN1CCc2c(c3cc(C)ccc3n2Cc2ccc(C)nc2)C1` [Compound 138, 2-ethyl-2,3,4,5-tetrahydro-8-methyl-5-((6-methylpyridin-3-yl)methyl)-1H-pyrido[4,3-b]indole], the inhibition at 1 µM in experiment [1] (setting [6]) and in experiment [1] (setting [7]) was 27% throughout. Also, the “Inhibition … Adren. alpha2B” value in experiment [2] came to 19%. Further, in experiment [3], the “Inhibition … Ser. 5-HT2A” value was found to be 14%. For the same molecule, the “Inhibition … Ser. 5-HT2C” value in experiment [4] was found to be 5%. Further, the “Inhibition … Adren. alpha1D” value in experiment [5] amounted to 33%.

As to `CCN1CCc2c(c3ccccc3n2CCc2ccncc2)C1` [Compound 5], the inhibition at 1 µM in experiment [1] (setting [6]) and in experiment [1] (setting [7]) was 2% throughout. In addition, the “Inhibition … Adren. alpha2B” value in experiment [2] stood at 78%. Moreover, the “Inhibition … Ser. 5-HT2A” value in experiment [3] was determined as 55%. Moreover, in experiment [4], the “Inhibition … Ser. 5-HT2C” value is 9%. For the same molecule, the “Inhibition … Adren. alpha1D” value in experiment [5] came out at 21%.

Take `CCN1CCc2c(c3cc(C)ccc3n2CCc2ccccn2)C1` [Compound 23, 2-ethyl-2,3,4,5-tetrahydro-8-methyl-5-(2-(pyridin-2-yl)ethyl)-1H-pyrido[4,3-b]indole]: the inhibition at 1 µM in experiment [1] (setting [6]) and in experiment [1] (setting [7]) was 28% each time. Further, the “Inhibition … Adren. alpha2B” value in experiment [2] is listed as 97%. The “Inhibition … Ser. 5-HT2A” value in experiment [3] is on record as 78%. The “Inhibition … Ser. 5-HT2C” value in experiment [4] amounted to 53%. Besides, the “Inhibition … Adren. alpha1D” value in experiment [5] stood at 61%.

In the case of `Cc1ccc2c(c1)c1c(n2Cc2ccc(C)nc2)CCN(C)C1` [Compound 139, 2,3,4,5-tetrahydro-2,8-dimethyl-5-((6-methylpyridin-3-yl)methyl)-1H-pyrido[4,3-b]indole], the inhibition at 1 µM in experiment [1] (setting [7]) came out at 7%. Moreover, the “Inhibition … Adren. alpha2B” value in experiment [2] turned out to be 52%. Further, the “Inhibition … Ser. 5-HT2A” value in experiment [3] was found to be 2%. The “Inhibition … Ser. 5-HT2C” value in experiment [4] turned out to be 0%. Further, the “Inhibition … Adren. alpha1D” value in experiment [5] is reported as 25%.

For `CCN1CCc2c(c3ccccc3n2CCc2ccc(C)cc2)C1` [Compound 3, 2-ethyl-2,3,4,5-tetrahydro-5-(4-methylphenethyl)-1H-pyrido[4,3-b]indole], the inhibition at 1 µM in experiment [1] (setting [6]) and in experiment [1] (setting [7]) was 51% in each case. Moreover, the “Inhibition … Adren. alpha2B” value in experiment [2] amounted to 102%. For the same molecule, the “Inhibition … Ser. 5-HT2A” value in experiment [3] is 98%. Besides, the “Inhibition … Ser. 5-HT2C” value in experiment [4] stood at 82%. Besides, the “Inhibition … Adren. alpha1D” value in experiment [5] stood at 48%.

`Cc1ccc2c(c1)c1c(n2CCc2ccc(C)nc2)C(Br)C(=O)N(C)C1` (stereo not shown) [Compound 232, 4-bromo-1,2-dihydro-2,8-dimethyl-5-(2-(6-methylpyridin-3-yl)ethyl)-4H-pyrido[4,3-b]indol-3(5H)-one]: the inhibition at 1 µM in experiment [1] (setting [6]) and in experiment [1] (setting [7]) was 3% throughout. Further, in experiment [2], the “Inhibition … Adren. alpha2B” value is 8%. For the same molecule, the “Inhibition … Ser. 5-HT2A” value in experiment [3] was −10%. The “Inhibition … Ser. 5-HT2C” value in experiment [4] was determined as 2%. Moreover, in experiment [5], the “Inhibition … Adren. alpha1D” value is 5%.

`Cc1ccc(Cn2c3c(c4ccccc42)CN(C)CC3)cn1` [Compound 17, 2,3,4,5-tetrahydro-2-methyl-5-((6-methylpyridin-3-yl)methyl)-1H-pyrido[4,3-b]indole]: the inhibition at 1 µM in experiment [1] (setting [6]) and in experiment [1] (setting [7]) was -2% throughout. Further, the “Inhibition … Adren. alpha2B” value in experiment [2] was 9%. In experiment [3], the “Inhibition … Ser. 5-HT2A” value was −7%. Besides, the “Inhibition … Ser. 5-HT2C” value in experiment [4] amounted to 8%. Moreover, the “Inhibition … Adren. alpha1D” value in experiment [5] is −7%.
